How the values were obtained:
[1] = system: HLI mouse model; test: Hindlimb ischemia (HLI) model, PEG-IGF-1: laser Doppler blood flow and limb appearance; assay type: in vivo, mice
Protocol: (§1) Microvascular blood flow was measured on a laser Doppler imager (Moor Instrument, UK). The blood flow before surgery, 1 day afterwards, every week for the following 4 weeks was recorded for both limbs and before sacrificing the mice. The data are presented as the blood flow ratio of the ischemia limb (left) to the normal limb (right).

[2] = system: apoptotic cells at the HA/AGP4 injection site in the ischemic leg muscle; test: HLI model, PEG-IGF-1: TUNEL assay of ischemic leg muscle
From the text: The HLI model was created by performing the left femoral artery and iliac artery ligation in mice and then cut to induce hindlimb ischemia (Limbourg et al., Nat. Protocols (2009) 4, 1737-1748.). The administrations for the experimental mice were divided into 3 parts: PEG-IGF-1, PEG-G-CSF, and the combined treatment. The treatment of PEG-IGF-1 and PEG-G-CSF are including five groups: Sham, HLI with the treatment of, 2% HA alone plus therapeutics or HA with AGP4 and followed by PBS or therapeutics. […]
The fixed distal calf and thigh muscles were deparaffinized, rehydrated and boiled in 10 mM sodium citrate (pH 6.0) for 10 minutes, followed by incubation with antibodies against tropomyosin (DHSB, Iowa city, Iowa, USA), WGA and isolectin (Invitrogen, Grand Island, N.Y., USA) at 4° C. overnight, and then incubated with Alexa Fluor 488- or 568-conjugated secondary antibodies (Invitrogen, Carlsbad, Calif., USA). After staining with DAPI (Sigma-Aldrich, St. Louis, Mo., USA), sections were mounted and observed under confocal microscope (LSM 700, Carl Zeiss MicroImaging, Germany) and fluorescence microscope. The capillary and arteriole densities at the border zone were measured and images were taken from 8 randomly-selected ischemic areas (200× magnification) in each sample and quantification was performed by manually counting each section; the 8 values were averaged. […]

[3] = system: HLI mouse model; test: HLI model, PEG-G-CSF: laser Doppler blood flow and limb appearance; assay type: in vivo, mice; conditions: HA-alone + PEG-G-CSF
Protocol: as §1
(§2) Results are depicted in FIGS. 5B to 5C.

[4] = system: hematopoietic stem cells (HSCs) and endothelial progenitor cells (EPCs); test: HLI model, PEG-G-CSF: anti-CD34 / anti-CD133 staining of recruited cells; assay type: in vivo, mice; conditions: HA/AGP4 + PEG-G-CSF vs HA-alone+PEG-G-CSF and HA/AGP4+PBS
From the text: as §2

Molecule | nail discoloration ([1]; HA-alone + PEG-IGF-1) | blood flow of ischemic leg compared with sham group ([1]; HA-alone i.m. + PEG-IGF-1 iv, Day 1 or Day 2) | blood flow at the ischemic leg ([1]; HA/AGP4 i.m. followed by PEG-IGF-1 iv (30 μg, three doses at 8 hrs interval)) | nail discoloration ([1]; PEG-IGF-1 administered after HA/AGP4) | ischemic damage ([1]; PEG-IGF-1 injections after HA/AGP4) | number of apoptotic cells (TUNEL) ([2]; HA-alone group, absence of AGP4) | number of apoptotic cells (TUNEL) ([2]; PEG-IGF-1 after administration of HA/AGP4) | nail discoloration [3] | number of recruited cells at the HA/AGP4 injection sites [4]
PEG-IGF-1: PEGylated Insulin Growth Factor-1 | signs of nail discoloration | no significant improvement | did not improve the blood flow | not obvious | minimized the ischemic damage | failed to reduce the number of apoptotic cells | significant reduction in apoptotic cells |  | 
PEG-G-CSF: PEGylated Granulocyte Colony-Stimulating Factor (protein, UniProt P09919 31-207, looked up, PEGylated, PEGylated Granulocyte Colony-Stimulating Factor) Granulocyte …: TPLGPASSLPQSFLLKCLEQVRKIQGDGAALQEKLVSECATYKLCHPEELVLLGHSLGIPWAPLSSCPSQALQLAGCLSQLHSGLFLYQGLLQALEGISPELGPTLDTLQLDVADFATTIWQQMEELGMAPALQPTQGAMPAFASAFQRRAGGVLVASHLQSFLEVSYRVLRHLAQP |  |  |  |  |  |  |  | nail discoloration was seen | increased the number of HSCs (CD133) and ECs (CD34)
